For test [1], the target named is T1, Human V2 Vasopressin Receptor (Homo sapiens, UniProt P30518).
T1 construct: expressed in transfected cells; host or cells: mouse fibroblast cell line LV-2
Put plainly: Binding to Membranes of Mouse Fibroblast Cell Line (LV-2) Transfected with the cDNA Expressing the Human V2 Receptor. To be noted: LV-2 cell membranes. How it is done: Binding to Membranes Of Mouse Fibroblast Cell Line (LV-2) Transfected with the cDNA expressing the Human V2 Vasopressin Receptor
Flasks of 175 ml capacity, containing attached cells grown to confluence are cleared of culture medium by aspiration. The flasks containing the attached cells are rinsed with 2×5 ml of phosphate buffered saline (PBS) and the liquid aspirated off each time. Finally, 5 ml of an enzyme free dissociation Hank's based solution (Specialty Media, Inc., Lafayette, N.J.) is added and the flasks are left undisturbed for 2 min. The content of all flasks is poured into a centrifuge tube and the cells pelleted at 300×g for 15 min. The Hank's based solution is aspirated off and the cells homo-genized with a polytron at setting #6 for 10 sec in 10.0 mM Tris.HCl buffer, pH 7.4 containing 0.25M sucrose and 1.0 mM EDTA. The homogenate is centrifuged at 1500×g for 10 min to remove ghost membranes. The supernatant fluid is centrifuged at 100,000×g for 60 min to pellet the receptor protein. Upon completion, the pellet is resuspended in a small volume of 50.0 mM Tris.HCl buffer, pH 7.4. The protein content is determined by the Lowry method and the receptor membranes are suspended in 50.0 mM Tris.HCl buffer containing 0.1 mM phenylmethylsulfonylfluoride (PMSF) and 0.2% bovine serum albumin (BSA) to give 2.5 mg receptor protein per ml of suspension.
For binding experiments, the following is added in μl volume to wells of a 96 well format of a microtiter plate: 100.0 μl of 100.0 mM Tris.HCl buffer containing 0.2% heat inactivated BSA, 10.0 mM MgCl2 and a mixture of protease inhibitors: leupeptin, 1.0 mg %; aprotinin, 1.0 mg %; 1,10-phenanthroline, 2.0 mg %; trypsin inhibitor, 10.0 mg % and 0.1 mM PMSF, 20.0 μl of [^3 H]Arginine^8, vasopressin (S.A. 75.0 Ci/mmole) at 0.8 nM and the reaction initiated by the addition of 80.0 μl of tissue membranes (200.0 μg tissue protein). The plates are left undisturbed on the bench top for 120 min to reach equilbrium. Non-specific binding is assessed in the presence of 1.0 μM of unlabeled ligand, added in 20 μl volume. For test compounds, these are solubilized in 50% dimethylsulfoxide (DMSO) and added in 20.0 μl volume to a final incubation volume of 200 μl . Upon completion of binding, the content of each well is filtered off, using a Brandel® cell Harvester (Gaithersburg, Md.). The radioactivity trapped on the filter disk by the ligand-receptor complex is assessed by liquid scintillation counting in a Packard LS Counter, with an efficiency of 65% for tritium. The data are analyzed for IC50 values by the LUNDON-2 program for competition (LUNDON SOFTWARE, OH).

Test [2] addresses T2, Vasopressin V1 Receptor Subtype in Human Platelet Membranes (Homo sapiens, UniProt P37288).
T2 construct: tissue Hudson Valley Blood Services, Westchester Medical Center, Valhalla, N.Y; host or cells: human platelet membranes from frozen platelet rich plasma
Description: Binding to V1 Receptor Subtype in Human Platelet membranes. The method, then:
Radioligand Binding Experiments with Human Platelet Membranes
Platelet Source: Hudson Valley Blood Services, Westchester Medical Center, Valhalla, N.Y.
Platelet Membrane Preparation:
Frozen platelet rich plasma (PRP), received from the Hudson Valley Blood Services are thawed to room temperature. The tubes containing the PRP are centrifuged at 16,000×g for 10 min. at 4° C. and the supernatant fluid discarded. The platelets resuspended in an equal volume of 50.0 mMTris.HCl, pH 7.5 containing 120 mM NaCl and 20.0 mM EDTA. The suspension is recentrifuged at 16,000×g for 10 min. This washing step is repeated one more time. The wash is discarded and the lysed pellets homogenized in low ionic strength buffer of Tris.HCl, 5.0 mM, pH 7.5 containing 5.0 mM EDTA. The homogenate is centrifuged at 39,000×g for 10 min. The resulting pellet is resuspended in Tris.HCl buffer, 70.0 mM, pH 7.5 and recentrifuged at 39,000×g for 10 min. The final pellet is resuspended in 50.0 mM Tris.HCl buffer pH 7.4 containing 120 mM NaCl and 5.0 mM HCl to give 1.0-2.0 mg protein per ml of suspension.
Binding to Vasopressin V1 Receptor Subtype in Human Platelet Membranes:
In wells of a 96 well format microtiter plate, add 100 μl of 50.0 mM Tris.HCl buffer containing 0.2% BSA and a mixture of protease inhibitors (aprotinin, leupeptin etc.). Then add 20 μl of [^3 H]Ligand: (Manning or Arg^8 Vasopressin), to give final concentrations ranging from 0.01 to 10.0 nM. Initiate the binding by adding 80.0 μl of platelet suspension (approx. 100 μg protein). Mix all reagents by pipetting the mixture up and down a few times. Non-specific binding is measured in the presence of 1.0 μM of unlabeled ligand (Manning or Arg^8 Vasopressin). Let the mixture stand undisturbed at room temperature for ninety (90) min. Upon this time, rapidly filter off the incubate under vacuum suction over GF/B filters, using a Brandel® Harvester. Determine the radioactivity caught on the filter disks by the addition of liquid scintillant and counting in a liquid scintillator

Our source for the IC50 values is patent US5696112A, “Fused heterocyclic azepines as vasopressin antagonists” (American Cyanamid Company, priority 1995, dated 1997).

T2 sequence (P37288 whole entry): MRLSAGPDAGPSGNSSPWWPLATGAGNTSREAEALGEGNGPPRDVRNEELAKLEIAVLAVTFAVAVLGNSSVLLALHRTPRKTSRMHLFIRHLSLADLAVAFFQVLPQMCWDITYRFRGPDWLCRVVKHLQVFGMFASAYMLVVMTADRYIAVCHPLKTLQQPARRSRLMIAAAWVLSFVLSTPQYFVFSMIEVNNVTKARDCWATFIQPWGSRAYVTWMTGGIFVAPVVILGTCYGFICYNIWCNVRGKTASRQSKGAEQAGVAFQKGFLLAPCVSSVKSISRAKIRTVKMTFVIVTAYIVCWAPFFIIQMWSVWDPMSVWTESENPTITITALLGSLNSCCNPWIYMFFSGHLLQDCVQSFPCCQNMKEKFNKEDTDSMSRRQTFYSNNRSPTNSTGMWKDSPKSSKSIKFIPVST
T1 sequence (P30518 whole entry): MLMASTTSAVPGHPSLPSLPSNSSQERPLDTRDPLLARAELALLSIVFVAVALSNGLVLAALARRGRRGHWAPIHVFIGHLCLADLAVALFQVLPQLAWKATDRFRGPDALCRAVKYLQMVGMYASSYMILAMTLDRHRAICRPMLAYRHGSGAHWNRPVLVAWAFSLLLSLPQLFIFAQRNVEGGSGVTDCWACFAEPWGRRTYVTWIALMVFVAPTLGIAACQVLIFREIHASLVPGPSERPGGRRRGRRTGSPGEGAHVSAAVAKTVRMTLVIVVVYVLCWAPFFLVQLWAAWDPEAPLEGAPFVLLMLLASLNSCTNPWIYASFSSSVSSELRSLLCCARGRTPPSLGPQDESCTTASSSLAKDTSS

Consider `O=C(Nc1ccc(C(=O)N2CCCCc3sccc32)c(Cl)c1)c1ccc(Cl)cc1Cl` [Example 68, N-[4-[(5,6,7,8-Tetrahydro-4H-thieno[3,2-b]azepin-4-yl)carbonyl]-3-chlorophenyl]-2,4-dichlorobenzamide], for which the IC50 is 0.022 µM in test [1] and 0.68 µM in test [2].
The like results for `Cc1ccc(F)cc1C(=O)Nc1ccc(C(=O)N2CCCCc3sccc32)c(Cl)c1` [Example 70, N-[4-[(5,6,7,8-Tetrahydro-4H-thieno[3,2-b]azepin-4-yl)carbonyl]-3-chlorophenyl]-5-fluoro-2-methylbenzamide] were, in that order, 0.0034 µM and 0.11 µM.
The like results for `O=C(Nc1ccc(C(=O)N2CCCCc3sc(Cl)cc32)cc1)c1c(Cl)cccc1Cl` [Example 95, N-[4-[(2-Chloro-5,6,7,8-tetrahydro-4H-thieno[3,2-b]azepin-4-yl)carbonyl]phenyl]-2,6-dichlorobenzamide] were, in that order, 0.004 µM and 0.19 µM.
For the compound `O=C(Nc1ccc(C(=O)N2CCCCc3sccc32)c(Cl)c1)c1ccc(F)cc1Cl` [Example 183], the values for the IC50 in test [1] and in test [2] were 0.0022 µM and 0.18 µM, respectively.

What is called IC50 is the concentration that gives 50% inhibition. Read a low IC50 as inhibition by little substance.
